In patent publication US20250179559A1, “DUAL-LUCIFERASE REPORTER GENE DETECTION SYSTEM, FLUORESCENCE DETECTION KIT, AND METHOD FOR DETECTING LUMINESCENT SIGNAL OF LUCIFERASE” (BGI SHENZHEN, priority 2022, published 2025):

Tests used:
[1] = test system: wild-type Gaussia luciferase (WT-Gluc); assay: Luminescence intensity of substrates with wild-type Gaussia luciferase; type: biochemical, Gaussia princeps; details: for Gluc fluorescence intensity: luciferase 1 μg/mL (10 μL), substrate 10 μM (90 μL), microplate reader; for Gluc relative intensity: percentage relative to wild-type Pleuromamma xiphias luciferase with compound N0, substrate 10 μM
Protocol: (§1) [drawing 6] • (3) According to the conventional methods, such as the method disclosed in PCT/CN2017/082180, an expression vector (plasmid) containing the wild-type Gaussia luciferase gene and the wild-type Pleuromamma xiphias luciferase gene was constructed. The plasmid was transformed into Escherichia coli OrigamiB (DE3), which was coated on a plate, and a single colony was picked from the plate, cultured overnight at 37° C., diluted at a ratio of 1:100 on the next day, transferred to 3 mL of fresh LB medium containing ampicillin resistance (100 μg/mL), cultured with shaking at 37° C. and 200 rpm for 4 hours, and cooled on ice for 1 hour. The inducer IPTG was added at a final concentration of 1 mM and the induction was preformed overnight at 16° C. On the next day, the bacteria were collected by centrifugation, resuspended with 500 μL lysate (50 mM Tris-HCl pH 8.0, 500 mM NaCl, 0.2% lysozyme, PMSF), lysed for 20 minutes at room temperature, frozen with liquid nitrogen and thawed for 3 times, and centrifuged for 30 minutes at 18,000 g. The supernatant was taken, which was purified by using a centrifugal Ni column. The protein eluted by Ni column was dialyzed with dialysis buffer (25 mM Tris, pH 8.0, 250 mM NaCl) at 4° C. overnight. The concentration of luciferase was accurately determined by using a BCA quantitative kit (Thermoscientific™ Pierce™ BCA protein assay kit). The two luciferases were diluted to a concentration of 1 μg/mL with a diluent (50 mM Tris-HCl pH 8.0, 100 mM NaCl, 0.1% (v/v) Tween-20), and 10 μL of each luciferase was taken and added to a black 96-well plate. The substrate was diluted to 10 μM with the same diluent, 90 μL of the substrate was taken add into the 96-well plate containing the above luciferases (90 μL/well), and the luminescence intensity was read by using a light-emitting module of a microplate reader. The test data of the Gaussia luciferase and the Pleuromamma xiphias luciferase on different substrates were shown in Table 1, in which the relative intensity is a percentage relative to the activity of wild-type Pleuromamma xiphias luciferase and compound N0. […] That is, in this dual-luciferase reporter gene detection system, the optimal luminescent combination with high fluorescence brightness and low cross-interference obtained after screening is using f-CTZ to detect the Gaussia luciferase, and using N0 to detect the Pleuromamma xiphias luciferase.

[2] = test system: wild-type Pleuromamma xiphias luciferase (WT-Pxluc); assay: Luminescence intensity of substrates with wild-type Pleuromamma xiphias luciferase; type: biochemical; details: for Pxluc fluorescence intensity: luciferase 1 μg/mL (10 μL), substrate 10 μM (90 μL), microplate reader; for Pxluc relative intensity: percentage relative to wild-type Pleuromamma xiphias luciferase with compound N0, substrate 10 μM
Protocol: as §1

[3] = test system: Gaussia luciferase mutant G2-F11; assay: Luminescence intensity of substrates with Gaussia luciferase mutant G2-F11; type: biochemical, Gaussia princeps; details: mutant G2-F11, among tested substrates
Protocol: (§2) The two luciferases were diluted to a concentration of 1 μg/mL with a diluent (50 mM Tris-HCl pH 8.0, 100 mM NaCl, 0.1% (v/v) Tween-20), and 10 μL of each luciferase was taken and added to a black 96-well plate. The substrate was diluted to 10 μM with the same diluent, 90 μL of the substrate was taken add into the 96-well plate containing the above luciferases (90 μL/well), and the luminescence intensity was read by using a light-emitting module of a microplate reader.
(§3) According to the method as described in Example 1, an expression vector containing the gene of the Gaussia luciferase mutant and the gene of the Pleuromamma xiphias luciferase mutant was constructed, a recombinant strain was constructed, the mutant-type luciferases were expressed, and the luminous intensity of substrates and luciferases was detected.

[4] = test system: Gaussia luciferase mutant E1-A3; assay: Luminescence intensity of substrates with Gaussia luciferase mutant E1-A3; type: biochemical, Gaussia princeps; details: mutant E1-A3, among tested substrates
Protocol: as §2, §3

[5] = test system: Gaussia luciferase mutant G2-F8; assay: Luminescence intensity of substrates with Gaussia luciferase mutant G2-F8; type: biochemical, Gaussia princeps; details: mutant G2-F8, among tested substrates
Protocol: as §2, §3

[6] = test system: Pleuromamma xiphias luciferase mutant P26-95; assay: Luminescence intensity of substrates with Pleuromamma xiphias luciferase mutant P26-95; type: biochemical; details: mutant P26-95, among tested substrates
Protocol: as §2
Mutant-Type Pleuromamma xiphias Luciferase P26-95: • d) P26-95: based on SEQ ID NO: 3, the following sites were mutated: G83A, and G84P.
as §3

Row | Structure (SMILES) | Gluc fluorescence intensity [1] | Gluc relative intensity [1] | Pxluc fluorescence intensity [2] | Pxluc relative intensity [2] | fluorescence intensity compared among substrates (in words) ([1]; wild-type Gaussia luciferase, among tested substrates) | fluorescence intensity compared among substrates (in words) [3] | fluorescence intensity compared among substrates (in words) [4] | fluorescence intensity compared among substrates (in words) [5] | fluorescence intensity compared among substrates (in words) [6] | fluorescence intensity compared among substrates (in words) ([2]; wild-type Pleuromamma xiphias luciferase, among tested substrates)
1 | O=c1c(Cc2ccc(F)cc2)nc2c(Cc3ccccc3)[nH]c(Cc3ccccc3)cn1-2 [Substrate N2] | 0 | 0.0% | 3026 | 1.9% |  |  |  |  |  | 
2 | CN(C)c1ccc(-c2cn3c(=O)c(Cc4ccc(F)cc4)nc-3c(Cc3ccccc3)[nH]2)cc1 [Substrate N4] | 17 | 0.0% | 4137 | 2.6% |  |  |  |  |  | 
3 | O=c1c(Cc2ccc(F)cc2)nc2c(Cc3ccccc3)[nH]c(-c3ccc(O)cc3)cn1-2 [f-CTZ] | 10186.5 | 6.4% | 69138 | 43.2% | highest fluorescence intensity | highest fluorescence intensity | highest fluorescence intensity | highest fluorescence intensity |  | 
4 | O=c1c(Cc2ccc(O)cc2)nc2c(Cc3ccccc3)[nH]c(-c3cccc(O)c3)cn1-2 [Substrate N0] | 5338 | 3.3% | 160037 | 100% |  |  |  |  | highest fluorescence intensity | highest fluorescence intensity
5 | Nc1ccc(-c2cn3c(=O)c(Cc4ccc(O)cc4)nc-3c(Cc3ccccc3)[nH]2)cc1 [Substrate N5] | 457 | 0.3% | 4430 | 2.8% |  |  |  |  |  | 
6 | Nc1ccc(-c2cn3c(=O)c(Cc4ccc(F)cc4)nc-3c(Cc3ccccc3)[nH]2)cc1 [Substrate N6] | 15 | 0.0% | 3464 | 2.2% |  |  |  |  |  | 
7 | O=c1c(Cc2ccc(F)cc2)nc2c(Cc3ccccc3)[nH]c(/C=C/c3ccccc3)cn1-2 [Substrate N8] | 12 | 0.0% | 1426 | 0.9% |  |  |  |  |  | 
8 | O=c1c(Cc2ccc(O)cc2)nc2c(Cc3ccccc3)[nH]c(Cc3ccccc3)cn1-2 [Substrate N1] | 0 | 0.0% | 1173 | 0.7% |  |  |  |  |  | 
9 | CN(C)c1ccc(-c2cn3c(=O)c(Cc4ccc(O)cc4)nc-3c(Cc3ccccc3)[nH]2)cc1 [Substrate N3] | 263 | 0.2% | 1520 | 0.9% |  |  |  |  |  | 
10 | O=c1c(Cc2ccc(O)cc2)nc2c(Cc3ccccc3)[nH]c(/C=C/c3ccccc3)cn1-2 [Substrate N7] | 135 | 0.1% | 4430 | 2.8% |  |  |  |  |  | 
